According to patent publication US11766470B2, “Manufacture, formulation and dosing of apraglutide” (VectivBio AG, priority 2020, dated 2023):
“And” between values parts separate entries of the source, which are not always exact repeats. Equal values may be shown once. Read-outs that look alike come from different tables or passages of the source. Square brackets hold non-standard residues; d marks the D form. Peptide text beside a SMILES is read from it. ξ: configuration not given here. Ile(3ξ) = CCC(C)[C@H](N)C(=O)O; Thr(3ξ) = CC(O)[C@H](N)C(=O)O; Nle = CCCC[C@H](N)C(=O)O

How the values were obtained:
clinical = conditions: human, in vivo; for half-life: t1/2, arithmetic mean ± SD; for CL/F: sc
Description: 23 healthy adult volunteers received 6 weekly subcutaneous doses of apraglutide (1, 5, or 10 mg) or placebo and were followed for a further 6 weeks after the last dose. Blood collections were controlled for diet, lifestyle, and diurnal effects. […] PK data underwent non-compartmental analysis and PD data were analyzed by ANCOVA.
As with citrulline, a statistical steady-state analysis per dose level was performed for apraglutide using Helmert's approach.

[1] = Plasma concentration of apraglutide (LC-MS/MS) in Phase 2 SBS-IF trial (Example 5); type: in vivo; conditions: human; for level at 168 h: sc, read-out: Mean plasma concentration before the second dose (Ctrough)
Source text: Blood samples for analysis of plasma concentration of apraglutide and fasting plasma L-citrulline, a marker of enterocyte mass, were collected at baseline, during first and second treatment injection, four days after first treatment injection and at the end of treatment.
Apraglutide and L-citrulline were quantified using a validated LC-MS-based method. For apraglutide, the analytical method used solid-phase extraction purification of the intact apraglutide molecule and its internal standard. The compounds were identified and quantified using reversed-phase HPLC with MS/MS detection using an AB Sciex API 5000 quadrupole mass spectrometer. For samples below the limit of quantification of 5.00 ng/mL, compounds were identified and quantified using reversed-phase UHPLC with MS/MS detection using an AB Sciex API 5500 quadrupole mass spectrometer. For L-citrulline, the analytical method used protein precipitation extraction of L-Citrulline and its internal standard. The compounds were identified and quantified using Hilic HPLC with MS/MS detection using an AB Sciex API 5000 quadrupole mass spectrometer.

[2] = test system: patients with SBS-IF or SBS-II; conditions: in vivo
Description: Patients were treated with once weekly 5 mg apraglutide for four weeks. Apraglutide was provided as a freeze-dried powder for reconstitution in sterile water prior to injection, and treatments were administered as subcutaneous injections in the abdominal area. A 72-hour metabolic balance study was performed at baseline and at the end of the treatment period (starting one day after the fourth and last apraglutide injection). Each 72-hour metabolic balance study was performed during a five-day hospital admission. On the day of admission, patients were instructed to create a 24-hour drinking menu based on their habitual oral fluid intake. The drinking menu was to be followed during each balance study. On the second day of admission, just after the patients had urinated and emptied their stoma bags or defecated, the balance study was initiated. […] Daily PS and compliance to the predefined drinking menu was documented during admissions.
First, second and fourth apraglutide injections were performed at the hospital. Safety assessments included observation for injection site reactions, vital signs, blood samples, electrocardiogram (ECG), urinalysis and body weight. They were performed at baseline, during each injection of the trial drug, four days after first injection, at the end of treatment and 4-6 weeks after last dosing at the end of the trial, as shown in Table 20. Liver enzymes were measured prior to each drug administration.

[3] = test system: patients with SBS-IF or SBS-II; assay: Phase 2 open-label metabolic balance trial in SBS-IF and SBS-II patients (Example 6): 72-hour metabolic balance, body composition, plasma L-citrulline; type: in vivo, human; conditions: 5 mg once weekly
Description: Treatment with glucagon-like peptide-2 (GLP-2) analogs promotes intestinal adaptation in patients with short bowel syndrome (SBS). Apraglutide is a novel long-acting GLP-2 analog designed to enable once weekly dosing. This Phase 2 trial investigated the safety and efficacy of once weekly 5 mg apraglutide in patients with SBS intestinal failure (SBS-IF) and SBS intestinal insufficiency (SBS-II). In this open-label trial, 8 adult patients with SBS-IF (n=4) or SBS-II (n=4) and a fecal wet weight of >1500 g/day were treated with once weekly subcutaneous 5 mg apraglutide for 4 weeks. Safety was the primary endpoint. As secondary endpoints changes were examined from baseline in intestinal absorption of wet weight, energy (measured by bomb calorimetry) and electrolytes as well as fecal wet weight and urine production using 72-hour metabolic balance studies. Common treatment-related adverse events were consistent with the physiological effect of GLP-2 and included reduced stoma output (n=6), stoma complication (n=6), nausea (n=5), flatulence (n=4), polyuria (n=3) and abdominal pain (n=3).
A total of nine adult patients (aged ≥18 to ≤80 years) with SBS were screened, eight of whom enrolled in the trial: four patients had SBS-II and four patients had SBS-IF. Both subgroups of patients were included to investigate the safety and efficacy of apraglutide across the disease spectrum. Patient eligibility was assessed during a screening visit. Main inclusion criteria were SBS secondary to surgical resection of the small intestine with or without colon; at least six months since last surgical bowel resection; and a severe degree of malabsorption, defined as a fecal wet weight output≥1,500 g/day and a urine volume production<2000 mL/day.
Fecal output and urine volume production were confirmed during baseline examinations. Patients were excluded if they had clinical signs of active inflammatory bowel disease, a history of cancer within five years or an inadequate hepatic-, kidney- or heart function.
The contents of the buckets were weighed, processed intro dry matter, and analyzed as previously described: energy by bomb calorimetry, nitrogen by Kjeldahl's method, lipid by a modified Van de Kamer titration technique, carbohydrate by Englyst's method, sodium and potassium by flame photometry and calcium and magnesium by atomic absorption spectrometry. A 24-hour average was calculated based on the three 24-hour periods. Absolute changes were calculated as the difference between the baseline and the post-treatment value. Relative changes were calculated as absolute changes divided by baseline values multiplied by 100.
Body weight was measured using a levelled platform scale. Body composition was measured by dual-energy x-ray absorptiometry (Norland XR-36 DXA densitometer, Norland, Ford Atkinson, WI, USA) at baseline and post-treatment.
Blood samples for analysis of the plasma concentration of apraglutide and plasma concentration of fasting L-citrulline, a marker of enterocyte mass, were collected at baseline, during first and second injection (pre-dose and at sequential timepoints), four days after first injection and at the end of treatment. Blood sampling for apraglutide pharmacokinetics was also performed after the fourth and last injection covering 96 hours. […] Blood samples for anti-apraglutide antibodies were collected at baseline, at the end of treatment and at the 4-6 weeks follow-up visit. All eight patients tested negative for anti-apraglutide antibodies at baseline.
The primary endpoint of this trial was safety. Secondary endpoints were absolute and relative changes from baseline in dietary intake, fecal excretion and absorption of wet weight, energy, macronutrients and electrolytes, urine production, urine electrolyte excretion, body weight, body composition, bone mineral content, plasma L-citrulline as well as pharmacokinetic profiles. […]

[4] = human, sc, 5 mg
Source text: Plasma citrulline was used as a pharmacodynamic (“PD”) marker to describe the effect of apraglutide. Similar to the pharmacokinetic (“PK”) model development, the PK/PD model was developed for the healthy individuals from studies GLY-101-2015 and TA799-002 only. For development of the PD model, the PD observations were fitted together with the PK observations using the final PK model with its structure, residual error-, covariates- and random effects-models. The starting model was a turnover model where plasma citrulline was constantly synthesized and degraded with the synthesis rate ksyn and the degradation rate kdeg. Plasma apraglutide stimulated citrulline synthesis via a sigmoid Emax relationship with the baseline citrulline level R0, the half-maximal effect at the concentration EC50, the maximal effect Emax, and a Hill coefficient gamma. It was assumed that citrulline turnover was in steady state such that citrulline synthesis was determined solely by citrulline baseline and degradation. The population PK/PD of plasma apraglutide was established with data from two studies in healthy volunteers and two studies with SBS patients that tested doses between 2.5 and 50 mg SC.
The population PK/PD model was used to predict plasma apraglutide exposure and plasma citrulline trough concentration-time profiles with and without inter-individual variability for individuals with body weights between 40 and 120 kg receiving weekly doses of 2.5, 5, or 10 mg SC. […] Apraglutide exposure for body weights between 40 and 120 kg and apraglutide SC doses of 2.5, 5, or 10 mg was compared to post-hoc exposure estimates of SBS patients. Bracketing at a body weight of 50 kg between doses of 2.5 and 5 mg was simulated.
Plasma citrulline was described by a turnover model and maximal PD effect model.

[5] = comparison with other GLP-2 analogs

SMILES: CCCC[C@H](NC(=O)[C@H](CCC(=O)O)NC(=O)[C@H](CC(=O)O)NC(=O)[C@H](CO)NC(=O)[C@H](Cc1ccccc1)NC(=O)[C@H](CO)NC(=O)CNC(=O)[C@H](CC(=O)O)NC(=O)CNC(=O)[C@@H](N)Cc1c[nH]cn1)C(=O)N[C@H](Cc1ccccc1)C(=O)N[C@H](C(=O)N[C@H](C(=O)N[C@@H](CC(C)C)C(=O)N[C@@H](CC(=O)O)C(=O)N[C@@H](CC(C)C)C(=O)N[C@@H](CC(C)C)C(=O)N[C@@H](C)C(=O)N[C@@H](C)C(=O)N[C@@H](CCCNC(=N)N)C(=O)N[C@@H](CC(=O)O)C(=O)N[C@@H](Cc1ccccc1)C(=O)N[C@H](C(=O)N[C@@H](CC(N)=O)C(=O)N[C@@H](Cc1c[nH]c2ccccc12)C(=O)N[C@@H](CC(C)C)C(=O)N[C@H](C(=O)N[C@@H](CCC(N)=O)C(=O)N[C@H](C(=O)N[C@@H](CCCCN)C(=O)N[C@H](C(=O)N[C@H](C(=O)N[C@@H](CC(=O)O)C(N)=O)C(C)O)C(C)CC)C(C)O)C(C)CC)C(C)CC)C(C)CC)C(C)O (stereo partly drawn) [apraglutide, L-histidyl-glycyl-L-aspartyl-glycyl-L-seryl-L-phenylalanyl-L-seryl-L-aspartyl-L-glutamyl-L-norleucyl-D-phenylalanyl-L-threonyl-Lisoleucyl-L-leucyl-L-aspartyl-L-leucyl-L-leucyl-L-alanyl-L-alanyl-L-arginyl-L-aspartyl-L-phenylalanyl-L-isoleucyl-L-asparaginyl-Ltryptophanyl-L-leucyl-L-isoleucyl-L-glutaminyl-L-threonyl-L-lysyl-L-isoleucyl-L-threonyl-Laspartic acid amide] (H-HGDGSFSDE[Nle][dF][Thr(3ξ)][Ile(3ξ)]LDLLAARDF[Ile(3ξ)]NWL[Ile(3ξ)]Q[Thr(3ξ)]K[Ile(3ξ)][Thr(3ξ)]D-NH2)
- Vd/F (clinical; 5 mg): 55.4 L
- half-life (clinical; 5 mg): 3.04 days
- Vd/F (clinical; 10 mg): 105 L
- half-life (clinical; 10 mg): 3.18 days
- CL/F (clinical; 1 mg): 12.2 mL/min
- CL/F (clinical; 5 mg): 11.4 mL/min
- CL/F (clinical; 10 mg): 14.4 mL/min
- Tmax ([1]; SBS-IF patients, SC, read-out: Time of maximum mean plasma concentration after dosing): 72 h
- level at 168 h ([1]; 5 mg treatment period): 4.5 ng/mL
- level at 168 h ([1]; 10 mg treatment period): 8.9 ng/mL
- Deaths [2]: no deaths occurred
- Body weight increase from baseline ([3]; 4 weeks): 1.8 kg
- Bone mineral content change from baseline ([3]; 4 weeks): -20 g
- Calcium, absorption, change from baseline ([3]; 4 weeks): 11 (−13 to 35); mmol/day
- Calcium, dietary intake, change from baseline ([3]; 4 weeks): −2 (−5 to 2); mmol/day
- Calcium, fecal output, change from baseline ([3]; 4 weeks): −13 (−36 to 11); mmol/day
- Calcium, urine excretion, change from baseline ([3]; 4 weeks): 0 (−1 to 1) mmol/day
- Carbohydrate, absorption, change from baseline ([3]; 4 weeks): 518 (112 to 924); kJ/day
- Carbohydrate, dietary intake, change from baseline ([3]; 4 weeks): 154 (−268 to 575); kJ/day
- Carbohydrate, fecal output, change from baseline ([3]; 4 weeks): −365 (−772 to 43); kJ/day
- Energy, dietary intake, change from baseline ([3]; 4 weeks): 154 (−1,006 to 1,314); kJ/day
- Fat mass decrease from baseline ([3]; 4 weeks): 1.1 kg
- Lean body mass increase from baseline ([3]; 4 weeks): 1.7 kg
- Lipid, absorption, change from baseline ([3]; 4 weeks): 376 (61 to 691); kJ/day
- Lipid, dietary intake, change from baseline ([3]; 4 weeks): 67 (−638 to 771); kJ/day
- Lipid, fecal output, change from baseline ([3]; 4 weeks): −309 (−969 to 351) kJ/day
- Magnesium, absorption, change from baseline ([3]; 4 weeks): 0 (−9 to 9); mmol/day
- Magnesium, dietary intake, change from baseline ([3]; 4 weeks): 1 (−2 to 3); mmol/day
- Magnesium, fecal output, change from baseline ([3]; 4 weeks): 0 (−9 to 9); mmol/day
- Magnesium, urine excretion, change from baseline ([3]; 4 weeks): 1 (−1 to 2), mmol/day
- Plasma L-citrulline, absolute increase from baseline ([3]; 4 weeks): 15.2 µmol/L
- Plasma L-citrulline, relative increase from baseline ([3]; 4 weeks): 66%
- Potassium, absorption, change from baseline ([3]; 4 weeks): 18 (4 to 32; p < 0.05) mmol/day and 18 (4 to 32); mmol/day
- Potassium, dietary intake, change from baseline ([3]; 4 weeks): 4 (−5 to 12); mmol/day
- Potassium, fecal output, change from baseline ([3]; 4 weeks): −15 (−32 to 3); mmol/day
- Potassium, urine excretion, change from baseline ([3]; 4 weeks): 13 (6 to 20); mmol/day
- Protein, absorption, change from baseline ([3]; 4 weeks): 104 (−205 to 412); kJ/day
- Protein, dietary intake, change from baseline ([3]; 4 weeks): −41 (−274 to 191); kJ/day
- Protein, fecal output, change from baseline ([3]; 4 weeks): −145 (−497 to 207); kJ/day
- Sodium, absorption, change from baseline ([3]; 4 weeks): 38 (3 to 74; p < 0.05) mmol/day and 38 (3 to 74); mmol/day
- Sodium, dietary intake, change from baseline ([3]; 4 weeks): −5 (−30 to 21); mmol/day
- Sodium, fecal output, change from baseline ([3]; 4 weeks): −43 (−92 to 6); mmol/day
- Sodium, urine excretion, change from baseline ([3]; 4 weeks): 27 (5 to 49); mmol/day
- Wet weight, absorption, change from baseline ([3]; 4 weeks): 741 (194 to 1287; p < 0.05) g/day and 741 (194 to 1,287); g/day
- Wet weight, dietary intake, change from baseline ([3]; 4 weeks): 61 (−84.0 to 207); g/day
- Wet weight, fecal output, change from baseline ([3]; 4 weeks): −680 (−1200 to −159; p < 0.05) ^ g/day and −680 (−1,200 to −159); g/day
- Wet weight, urine (urine production), change from baseline ([3]; 4 weeks): 560 (72 to 1048; p < 0.05) g/day and 560 (72 to 1,048); g/day
- Energy, absorption, change from baseline ([3]; 4 weeks, bomb calorimetry): 1,095 kJ/day
- Potassium, absorption, change from baseline ([3]; 4 weeks, listed as Apraglutide): 18 mmol/day
- Potassium, urine excretion, change from baseline ([3]; 4 weeks, listed as Apraglutide): 13 mmol/day
- Sodium, absorption, change from baseline ([3]; 4 weeks, listed as Apraglutide): 38 mmol/day
- Sodium, urine excretion, change from baseline ([3]; 4 weeks, listed as Apraglutide): 27 mmol/day
- Wet weight, absorption, change from baseline ([3]; 4 weeks, listed as Apraglutide): 741 g/day
- Wet weight, fecal output, change from baseline ([3]; 4 weeks, listed as Apraglutide): -680 g/day
- Wet weight, urine (urine production), change from baseline ([3]; 4 weeks, listed as Apraglutide): 560 g/day
- Change from baseline increase in urinary input [3, 5]: 140.1%
- Change in baseline in energy absorption [3, 5]: 1,074 kj/day
- Change in baseline in wet weight absorption [3, 5]: 760.4 g/day
- Time of peak plasma concentration (Cmax), population PK/PD model estimate [4]: 1.39 days
